Patent US20140121182A1, “PROTEASOME INHIBITORS AND PROCESSES FOR THEIR PREPARATION, PURIFICATION AND USE” (Cephalon, Inc., priority 2011, published 2014)
One block for each compound: values may come before it.

How the values were obtained:
[1] = Storage stability in freezer / under ambient conditions; type: physicochemical
Text: Compound 1 is obtained as a non-crystalline solid using the process set forth in US 2009/0325903. Compound 1 is obtained as a mixture of monomer and the trimer anhydride N,N′,N″-boroxin-2,4,6-triyltris {{(1R)-3-methylbutane-1,1-diyl]imino(2-oxoethane-2,1-diyl)]}tris(2,5-dichlorobenzamide) (H NMR analysis).
The citric acid ester of Compound 1 (4-(R,S)-(carboxymethyl)-2-((R)-1-(2-(2,5-dichlorobenzamido)acetamido)-3-methylbutyl)-6-oxo-1,3,2-dioxaborinane-4-carboxylic acid) is obtained as a crystalline solid (Form 1 or Form 2) using the process set forth in US 2009/0325903. The citric acid ester of Compound 1 is stable when stored in the freezer.

[2] = Storage for approximately one year at ambient indoor temperature and humidity, HPLC purity; type: physicochemical; settings: in a vial at the rear of a fume hood
Method: A 100 mL three neck round bottom flask equipped with a stir bar, thermocouple and nitrogen inlet is charged with 6.0 g (16.6 mmol) of Compound 1 (98.5A % purity) and 60 mL of ethyl acetate then stirred for five minutes at room temperature to dissolve the solids. Diethanol amine (1.68 g, 16.0 mmol) is charged and solids begin to form when addition is only ⅔ complete. The white slurry is stirred at room temperature for two hours and then the solids are collected by vacuum filtration, washed with 50 mL of ethyl acetate and dried overnight in a vacuum oven at 40° C. A quantitative yield of the desired product is obtained as a crystalline solid with an HPLC purity of 99.7A %. After storing for approximately one (1) year at ambient indoor temperature and humidity (in a vial at the rear of a fume hood), the HPLC purity was 99.9A %. ^1H NMR (d6-DMSO, 400 MHz) δ 8.8 (t, 1H, J=5.88 Hz), 7.55 (s, 2H), 7.52 (s, 1H), 6.99 (d, 1H, J=8.36 Hz), 6.57 (s, b, 1H), 3.85 (dq, 1H, J=16.1, 5.92 Hz), 3.69 (m, 2H), 3.57 (m, 1H), 3.14 (m, 1H), 2.99 (m, 2H), 2.75 (m, 1H), 2.69 (m, 1H), 1.59 (m, 1H), 1.31 (m, 1H), 1.22 (m, 1H), 0.824 (d, 3H, J=6.64 Hz), 0.797 (D, 3 h, J=6.48 Hz)
A 15 mL one neck round bottom flask equipped with a stir bar and nitrogen inlet is charged with 0.5 g (1.39 mmol) of Compound 1 (98.5A % purity) and 5 mL of ethyl acetate then stirred for five minutes at room temperature to dissolve the solids. Diisopropanolamine (185 mg, 1.39 mmol) is charged and stirred at room temperature. The white precipitate is collected by vacuum filtration, washed with 5 mL of ethyl acetate and dried overnight under nitrogen on the filter to give 410 mg (0.895 mmol, 64%) of the desired product with an HPLC purity of 99.4A %. […]

[3] = Comparative bioavailability: pharmacokinetic parameters for Compound 1 in rat plasma and blood after single iv and oral doses of its esters; type: in vivo, male Sprague Dawley rats; settings: for AUC0-t / AUC0-∞ / CL / Vd / t½ / Cmax / Oral Bioavailability / Tmax: mean ± SEM
Method: Three adult male Sprague Dawley rats are used in each treatment group. The rats are fasted overnight prior to oral dose administration. Intravenous (IV) administration is via the lateral tail vein and oral doses are administered by gavage. The compound is administered iv or orally in a vehicle of phosphate buffered saline.
For blood collection, each rat (unanesthetized) is placed in a clear Plexiglas® restraining tube, and blood samples (approximately 0.25 mL) are drawn from a lateral tail vein into heparinized collection tubes at predetermined sampling times (0.083, 0.25, 0.5, 1, 2, 4, and 6 hours post dose). No pre-dose samples are obtained. The exception to this procedure is the last sampling time in which the animals are sacrificed by decapitation and trunk blood is obtained rather than blood via a tail vein. The blood samples are placed on wet ice until centrifuged to separate plasma. The whole blood and the plasma fraction are transferred into clean dry tubes, frozen on dry ice and stored at approximately −20° C. pending analysis.
Blood or plasma is prepared for high performance liquid chromatography (HPLC)/mass spectrometric analysis according to standard protocol following protein precipitation with acetonitrile containing an internal standard. The blood or plasma samples are then analyzed for Compound 1 and alprenolol (internal standard) via HPLC coupled with tandem mass spectrometry.
The blood and plasma concentration data for all rats are entered into Excel spreadsheets in preparation for pharmacokinetic analysis. Pharmacokinetic parameters for Compound 1 are estimated for each rat by non-compartmental analysis (Gibaldi M, Perrier D. Pharmacokinetics, 2nd edition, Marcel Dekker, New York, Chapter 11, 1982) of the blood or plasma concentration versus time data using WinNonlin software (Professional Version 4.1a, Pharsight Corporation, Palo Alto, Calif., 2003).
The maximum blood or plasma concentration (Cmax) is the highest observed concentration after an oral dose; tmax is the corresponding time when Cmax is observed. The terminal rate constant for elimination from blood or plasma (β) is estimated by linear regression of the terminal portion of the semi-logarithmic plasma concentration versus time curve. The apparent terminal half-life (t1/2) is calculated as 0.693 divided by β. The area under the blood or plasma concentration versus time curve from time zero to the time of the last measurable concentration (AUC0-t) after a single dose is determined by the linear trapezoidal rule. The area from zero to infinity (AUC0-∞) is calculated as the sum of AUC0-t and the area extrapolated from the last measurable concentration to infinity (Clast/β). Concentrations pre dose are all assumed to be zero for the purpose of calculation of the AUC. Oral bioavailability is determined by dividing the dose normalized oral AUC0-∞ by the […] from iv dosing and multiplying by 100 to express the ratio as a percent.
The mean±SEM. pharmacokinetic parameters for Compound 1 in male Sprague Dawley rats administered as single iv and oral doses of the citric acid ester of Compound 1 (“Form 1” or “Form 2”) or the diethanolamine ester of Compound 1 (“DEA Adduct”; i.e., boronic ester of Formula X) are shown in Tables 5-10 and corresponding FIGS. 5-10.

[4] = Compound 1 in blood, 0.3 mg/kg IV
[5] = Compound 1 in blood, 1 mg/kg IV
[6] = Compound 1 in blood, 1 mg/kg PO
[7] = Compound 1 in blood, 3 mg/kg PO
[8] = Compound 1 in plasma, 0.3 mg/kg IV
[9] = Compound 1 in plasma, 1 mg/kg IV
[10] = Compound 1 in plasma, 1 mg/kg PO
[11] = Compound 1 in plasma, 3 mg/kg PO

storage stability ([1]; ambient conditions): not storage stable
storage stability ([1]; stored in the freezer): stable
Compound: CC(C)C[C@H](NC(=O)CNC(=O)c1cc(Cl)ccc1Cl)B(O)O [Compound 1, [(1R)-1-({[(2,5-dichlorobenzoyl)amino]acetyl}amino)-3-methylbutyl]boronic acid]

HPLC purity after storing for approximately one (1) year [2]: 99.8 A %
Compound: CC(C)C[C@H](NC(=O)CNC(=O)c1cc(Cl)ccc1Cl)B1OC(C)CNCC(C)O1 (stereo partly drawn) [boronic ester of Formula IX, 2,5-Dichloro-N-{[(R)-1-(4,8-dimethyl-[1,3,6,2]dioxazaborocan-2-yl)-3-methyl-butylcarbamoyl]-methyl}benzamide]

AUC0-t [3, 4]: 168 ± 46 ng·h/mL
AUC0-∞ [3, 4]: 190 ± 45 ng·h/mL
CL [3, 4]: 30 ± 6 mL/min/kg
Vd [3, 4]: 5.8 ± 1.9 L/kg
t½ [3, 4]: 2.2 ± 0.4 h
AUC0-t [3, 5]: 509 ± 89 ng·h/mL
AUC0-∞ [3, 5]: 535 ± 100 ng·h/mL
CL [3, 5]: 33 ± 6 mL/min/kg
Vd [3, 5]: 3.9 ± 0.7 L/kg
t½ [3, 5]: 1.4 ± 0.2 h
AUC0-t [3, 6]: 166 ± 16 ng·h/mL
AUC0-∞ [3, 6]: 200 ± 17 ng·h/mL
Cmax [3, 6]: 92 ± 39 ng/mL
Oral Bioavailability [3, 6]: 32 ± 1%
Tmax [3, 6]: 0.3 ± 0.1 h
t½ [3, 6]: 2.8 h
AUC0-t [3, 7]: 336 ± 69 ng·h/mL
AUC0-∞ [3, 7]: 381 ± 78 ng·h/mL
Cmax [3, 7]: 205 ± 84 ng/mL
Oral Bioavailability [3, 7]: 23 ± 4%
Tmax [3, 7]: 0.8 ± 0.6 h
t½ [3, 7]: 1.7 ± 0.2 h
AUC0-t [3, 8]: 449 ± 256 ng·h/mL
AUC0-∞ [3, 8]: 457 ± 254 ng·h/mL
CL [3, 8]: 20 ± 9 mL/min/kg
Vd [3, 8]: 0.9 ± 0.3 L/kg
t½ [3, 8]: 0.6 ± 0.1 h
AUC0-t [3, 9]: 1225 ± 42 ng·h/mL
AUC0-∞ [3, 9]: 1240 ± 47 ng·h/mL
CL [3, 9]: 13 ± 1 mL/min/kg
Vd [3, 9]: 1.2 ± 0.1 L/kg
t½ [3, 9]: 1.1 ± 0.1 h
AUC0-t [3, 10]: 170 ± 16 ng·h/mL
AUC0-∞ [3, 10]: 182 ± 17 ng·h/mL
Cmax [3, 10]: 179 ± 39 ng/mL
Oral Bioavailability [3, 10]: 12 ± 1%
Tmax [3, 10]: 0.3 ± 0.1 h
AUC0-t [3, 11]: 990 ± 310 ng·h/mL
AUC0-∞ [3, 11]: 1029 ± 299 ng·h/mL
Cmax [3, 11]: 567 ± 185 ng/mL
Oral Bioavailability [3, 11]: 27 ± 8%
Tmax [3, 11]: 0.5 ± 0.0 h
t½ [3, 11]: 1.1 ± 0.1 h
oral bioavailability (conclusion in words) ([3]; conclusion from Tables 5-10): orally bioavailable
HPLC purity after storing for approximately one (1) year [2]: 99.9 A %
Compound: 2,5-Dichloro-N—[(R)-1-[1,3,6,2]dioxazaborocan-2-yl-3-methyl-butylcarbamoyl)methyl]-benzamide [boronic ester of Formula X]

storage stability ([1]; stored in the freezer): stable
Compound: CC(C)C[C@H](NC(=O)CNC(=O)c1cc(Cl)ccc1Cl)B1OC(=O)CC(CC(=O)O)(C(=O)O)O1 (mixture of isomers) [citric acid ester of Compound 1, 4-(R,S)-(carboxymethyl)-2-((R)-1-(2-(2,5-dichlorobenzamido)acetamido)-3-methylbutyl)-6-oxo-1,3,2-dioxaborinane-4-carboxylic acid, reference compound]

HPLC purity after storing for approximately one (1) year [2]: 84.4 A %
Compound: CC(C)C[C@H](NC(=O)CNC(=O)c1cc(Cl)ccc1Cl)B1OC(=O)CN(C)CC(=O)O1 [2,5-Dichloro-N—{[(R)-3-methyl-1-(6-methyl-4,8-dioxo-[1,3,6,2]dioxazaborocan-2-yl)-butylcarbamoyl]-methyl}benzamide]
